One test deals with UBE3A-deficient iOPCs. In words: Ki67 (and PCNA) immunoblotting in UBE3A-knockdown iOPCs: compound screen and rescue of proliferation. The test is classed as cell-based, human. To be noted: for EC50: Homo sapiens, iOPCs treated with siUBE3A, Ki67 immunoblotting normalized to siNC plus vehicle, read-out: EC50 for rescue of Ki67 expression; for Ki67 expression (FIG. 19G) / PCNA expression (FIG. 19G): siUBE3A cells, normalized to GAPDH. The method, then:
Given the scarcity of knowledge regarding UBE3A function in oligodendrocyte biology, a comprehensive exploration of various cellular functions was performed, leveraging the high-throughput capabilities of the iPSC-based methodology (e.g., as described herein). We selected over 45 compounds with known targeted cellular actions (Table 1). These were chosen based on their documented effects on UBE3A, their ability to promote oligodendrocyte development and myelination, or their protective 10 roles in neural tissue. UBE3A expression was modulated using siRNA, achieving a controlled reduction that decreased OPC proliferation by approximately 50%, as evidenced by Ki67 protein levels.
iPSC Culturing and Generation of Induced Human Brain Cells Including Oligodendroglia, Neurons (IN), Astrocytes (iAs) and Microglia (iMG) The generation of iPSC-derived human oligodendrocyte precursor cells (iOPCs) was carried out according to a previously published protocol by Vulakh and Yang et al., 2023 (Characterizing the Neuron-Glial Interactions by the Co-cultures of Human iPSC-Derived Oligodendroglia and Neurons. Methods Mol. Biol. 2683), which itself was a modification of an earlier protocol by Assetta et al., 2020 (Generation of Human Neurons and Oligodendrocytes from Pluripotent Stem Cells for Modeling Neuron-Oligodendrocyte Interactions. J Vis Exp.). The process began with the control iPSCs, which is a well-characterized control reference line acquired from the NIH-funded iPSC Neurodegenerative Disease Initiative (INDI, (Ramos, D. M., Skarnes, W. C., Singleton, A. B., Cookson, M. R., and Ward, M. E. (2021). Tackling neurodegenerative diseases with genomic engineering: A new stem cell initiative from the NIH. Neuron 109, 1080-1083. 10.1016/j.neuron.2021.03.022)), distributed by the Jackson Laboratory. These iPSCs were maintained in mTeSR plus medium (StemCell Technologies, #05825) and expanded in Stem Flex medium (Fisher Scientific. #A3349401) for the induction of neural progenitor cells (INPC). The iNPCs were derived by treating iPSCs with a commercial SMAD inhibitor medium (StemCell Technologies, #08582) for 7 days (Week 1). Subsequently, NPCs were further induced to become OPCs by a 7-day incubation (Week 2) with a chemically-defined OPC medium: DMEM/F12 medium (Thermo Fisher, #11320033) supplemented by 10 ng/ml PDGF-AA (R&D Systems, #221-AA-025), 1 μM SAG (Tocris, #4366), […] N-Acetyl-Cysteine (Millipore Sigma, #A9165-5G), 20 ng/mL bFGF (R&D Systems, #233-FB-025/CF), 1% N2 supplement (Thermo Fisher, #17502048), and 1% B27 supplement (Thermo Fisher, #17504044). […] The additional incubation with OL medium for 7-14 days (Week 4-5) yielded mature, myelinating OLs.
The siRNAs targeting UBE3A (Thermo Fisher, #4390815 and #4390816), estrogen receptors (Thermo Scientific #145909 for ESRβ, #145539 for ESRα, and #4390824 for GPER), and negative control (Thermo Scientific, #AM4615) were obtained commercially. The 10-20 nM final concentration was used with Lipofectamine RNAiMAX transfection reagent (Thermo Scientific #13778075) and incubated for at least 48 hours before the treatments of therapeutic compounds or other reagents.
Cells were collected by fast spin down in centrifuge tubes before lysis in RIPA buffer (ThermoFisher, #89901) supplemented with proteinase inhibitor cocktail (Sigma-Aldrich, #5892791001) on ice. Lysates were then spun down at 15000 rpm for 10 mins, the supernatant was collected and mixed with 4× Laemmle sample buffer (Bio-Rad, #1610747) and cooked 10 mins before SDS-PAGE and transferred with Bio-Rad fast transfer system, the membranes were blocked for one hour in 1× Tris Buffered Saline (TBS) with 1% Casein buffer (Bio-Rad, #1610782) and incubated with primary antibodies overnight at 4 degrees. […]
For orientation: Immunoblotting shows a protein as a band on a membrane.

For test [1], the system named is iOPCs expressing Cas9 and a sgRNA targeting UBE3A. Kind of test: EdU incorporation in iOPCs with CRISPR/Cas9 UBE3A depletion (Lenti-sgUBE3A #1-3). The test is classed as cell-based, human. Particulars: 10 μM; any of the sgRNAs. The method, then:
The sgRNAs targeting UBE3A, and negative control were obtained from Applied Biological Materials Inc. Targeting sgRNA sequences against UBE3A are: sgRNA1, […]; sgRNA2, […]; sgRNA3, […]. These sgRNAs were integrated into the backbone of the negative control pLenti-U6-sgRNA-SFFV-Cas9-2A-Puro. All constructs were packaged into lentiviruses and concentrated by Lenti-X Concentrator (Takara Bio #631231). In each experiment, 5-10 μl of concentrated virus was administered into ˜70% confluent iOPCs cultures in 6-well plates. One day post-lentiviral transduction, iOPC cultures were treated with approximately 5 μg/ml Puromycin to isolate those iOPCs which are expressing Cas9/sgRNAs. Following a day of selection, the iOPCs were then seeded on gelatin-coated coverslips placed in 24-well plates at a density of 100,000 cells per well. After another day allowed for cell stabilization, treatment with either the vehicle control (DMSO), AC-186, DPN, or LY500307 commenced at a standard concentration of 10 μM. A final 24-hour period after this treatment saw the cells exposed to […] for three hours, preparing them for subsequent immunofluorescence staining.
The EdU labeling kit from ThermoFisher Scientific (#C10637) was used to trace cell proliferation by incubating iOPCs with 2 μM EdU for three hours before fixation. Following EdU incorporation, cells were fixed in 4% paraformaldehyde, blocked with normal serum, and stained with primary antibodies, Rabbit anti-Ki67 and Mouse anti-UBE3A. These steps were conducted according to the manual of the labeling kit and also detailed immunofluorescence staining protocols described below, to ensure specific detection of the proliferation marker Ki67 and the ubiquitin-protein ligase UBE3A in the cells for subsequent imaging analysis.

Test [2] concerns rat OPCs with normal UBE3A levels. In words: Proliferation of rat OPCs with normal UBE3A levels. The test is classed as cell-based.

“Also recorded” adds a separate entry of the source.

For orientation: EC50 means the concentration needed to bring the measured effect to its halfway point.

For the molecule `Oc1ccc(C2(c3ccccc3F)CCC(F)(F)CC2)cc1` [AC-186], the “restoration of Ki67 expression in compound screen” value in the test with UBE3A-deficient iOPCs (10 μM, 24 hours, Ki67 immunoblotting normalized to siNC=1.0) was “restored; also recorded: effectively normalized proliferation levels; also recorded: Statistically significant; also recorded: capable of restoring Ki67 expression”. For the same molecule, in the test with UBE3A-deficient iOPCs (24 hours), the EC50 is around 16 nM. For the same molecule, in the test with UBE3A-deficient iOPCs (10 μM, 24 hours), the “Ki67 expression (FIG. 19G)” value is “increased expression” and the “PCNA expression (FIG. 19G)” value is “increased expression”. In addition, the “number of EdU+ cells” value in test [1] is “increased the number of EdU+ cells”. Further, the “effect on OPCs with normal UBE3A levels” value in test [2] is “neither AC-186 nor DPN affected”.
In the case of `N#CC(Cc1ccc(O)cc1)c1ccc(O)cc1` (stereo not drawn) [DPN, diarylpropionitrile, reference compound], the “impact of UBE3A loss on OPC proliferation (FIG. 18F, 19G)” value with UBE3A-deficient iOPCs (ERβ activators of different structural classes) was “similarly mitigated the impact of UBE3A loss on OPC proliferation”. The EC50 in the test on UBE3A-deficient iOPCs (24 hours) was around 19 nM. In the test with UBE3A-deficient iOPCs (10 μM, 24 hours), the “Ki67 expression (FIG. 19G)” value is on record as “increased expression” and the “PCNA expression (FIG. 19G)” value is reported as “increased expression”. In test [1], the “number of EdU+ cells” value is listed as “increased the number of EdU+ cells”. Besides, in test [2], the “effect on OPCs with normal UBE3A levels” value is “neither AC-186 nor DPN affected”.
